The values that follow come from article PMC8745253, “Affinity and Specificity for Binding to Glycosaminoglycans Can Be Tuned by Adapting Peptide Length and Sequence” (International Journal of Molecular Sciences, 2021).

For assay [1] the following is noted: cited from earlier work. From the text:
(§1) Chemokines are small proteins that have two main interaction partners: chemokine receptors, which are G protein-coupled receptors (GPCRs), and GAGs. The binding of chemokines to GAGs enables the formation of a chemokine concentration gradient, which is indispensable for leukocyte migration. Interfering with the interactions between GAGs and chemokines can be a useful therapeutic strategy to inhibit inflammation. The chemokine CXCL9 binds to CXCR3 and is characterized by a highly positively charged COOH-terminal tail. A CXCL9-derived peptide, CXCL9(74-103), consisting ...

In assay [2] the test system is cellular GAGs on HS+ (pgsB-618 clone 19) and HS- (pgsB-618 clone 16) CHO cells. Kind of assay: Binding of TAMRA-labeled peptides to cellular GAGs, flow cytometry. The class given is cell-based, Chinese hamster. Particulars: 0.24 nmol TAMRA-labeled peptide; for Binding to HS+ CHO cells compared with HS- CHO cells (MFI): 1 × 10^5 cells, 30 min on ice, Wilcoxon test; for Binding capacity for cellular GAGs (MFI ([HS+]–[HS−])), comparison of the peptides: n ≥ 7, Mann–Whitney test. The procedure:
The binding of four different TAMRA-labeled peptides (KKAK-2mer, KKQK-3mer, KKKQQK-2mer and CXCL9(74-103)) to cellular GAGs on pgsB-618 clone 16 (HS^− CHO cells) and pgsB-618 clone 19 cells (HS^+ CHO cells) was assessed using flow cytometry. Since each peptide contains exactly one TAMRA-group connected to the N-terminus, this allows us to quantify the peptides by their fluorescence or absorbance.
(§2) First, the medium was discarded, the cells were washed with PBS and were detached with trypsin/EDTA at 37 °C. Subsequently, the cells were resuspended in medium and left at room temperature for 45 min, and afterwards on ice for 15 min. After centrifugation at 177 g and 4 °C for 7 min, the pellet was resuspended in PBS and the cells were kept on ice. For each condition, 1 × 10^5 cells in 100 μL PBS were used and 4.7% (v/v) FcR blocking reagent and 0.06% (v/v) Zombie Aqua fixable viability dye were added to the cells. Following incubation in the dark at room temperature for 20 min, a wash step with flow cytometry buffer was performed. Afterwards, 0.24 nmol TAMRA-labeled peptide was added to the cells. After incubation in the dark on ice for 30 min, a wash step with flow cytometry buffer was performed and, subsequently, the cells were fixed with 0.4% (v/v) formaldehyde in flow cytometry buffer and kept at 4 °C. Flow cytometric analysis was performed within the following 24 h using a BD LSRFortessa X-20 flow cytometer (BD Biosciences; Franklin Lakes, NJ, USA), and the results were analyzed using FlowJo software (BD Biosciences).
(§3) Flow cytometry data (Figure 7C and Figure S2) are represented as median. […] In the next step, either a Mann–Whitney test (for unpaired data) or a Wilcoxon test (for paired data) was used to compare the groups. Statistical analysis was performed using GraphPad Prism 8.3.0 software (GraphPad Software; San Diego, CA, USA).

Assay [3] deals with CXCR3. The settings on record: cited from earlier work.
Text: as §1

Assay [4] has as its system cellular GAGs on HS+ and HS- CHO cells. Kind of assay: Binding of TAMRA-labeled peptides to cellular GAGs in the presence of added soluble GAGs, flow cytometry. The class given is cell-based, Chinese hamster. Particulars: versus no GAG, Kruskal–Wallis test, n ≥ 6; for Effect of added soluble HA on binding of the peptide to cellular GAGs (MFI ([HS+]–[HS−])): 0.24 nmol peptide with 0.03-3 μg HA (70–120 kDa); for Effect of added soluble HS on binding of the peptide to cellular GAGs (MFI ([HS+]–[HS−])): 0.24 nmol peptide with 0.03-3 μg HS; for Effect of added soluble heparin on binding of the peptide to cellular GAGs (MFI ([HS+]–[HS−])): 0.24 nmol peptide with 0.03-3 μg heparin. The procedure: as §2
Similarly, the binding of three TAMRA-labeled peptides (KKQK-3mer, KKKQQK-2mer and CXCL9(74-103)) to cellular GAGs on pgsB-618 clone 16 (HS^− CHO cells) and pgsB-618 clone 19 cells (HS^+ CHO cells) in the presence of added GAGs was assessed using flow cytometry. In this experiment, different doses (0.03, 0.1, 0.3, 1 or 3 μg) of heparin (heparin low in calcium; Iduron; Cheshire, UK), HS (GAG HS01 BN1; Iduron; Cheshire, UK) or HA (70–120 kDa; HA sodium salt 96144; Sigma-Aldrich; St. Louis, MO, USA) were added to the cells, simultaneously with 0.24 nmol of TAMRA-labeled peptide (vide supra).
as §3
(In general: In flow cytometry, cells or beads pass a laser one at a time.)

The conditions of assay [5]: cited from earlier work. An excerpt: No significant difference in affinity for HS was detected between the long (KKKQQK) and short (KKQK) GAG-binding motifs (Figure 2). […] This is consistent with the report that peptides containing multiple copies of the GAG-binding motifs XBBXBX and XBBBXXBX had higher affinity for heparin [30]. It is important to point out that CXCL9(74-103) had the ...
The source holds these as a separate data set.

On to `CC(=O)NC(CCCNC(=N)N)C(N)=O` (stereo not drawn) [acetyl-Arg-amide], for which the “Tighter binding to heparin than the corresponding acetyl-Lys-amide” value in assay [1] was “approximately 2.5 times”.

Consider * KKAKASASKKAKTT [KKAK-2mer], for which, in assay [2], the “Binding to HS+ CHO cells compared with HS- CHO cells (MFI)” value is reported as “bound significantly better to HS^+ CHO cells” and the “Binding capacity for cellular GAGs (MFI ([HS+]–[HS−])), comparison of the peptides” value (from here on “Binding capacity for cellular GAGs”) is “lowest”.

On to “* KKKQKNGKKHQKKKVLKVRKSQRSRQKKTT [CXCL9(74-103), chemokine-derived peptide, the 30 COOH-terminal amino acids of the chemokine CXCL9, TAMRA-labeled]”, for which, in assay [2], the “Binding to HS+ CHO cells compared with HS- CHO cells (MFI)” value is on record as “bound significantly better to HS^+ CHO cells” and the “Binding capacity for cellular GAGs” value is “significantly higher (p < 0.0001) compared with that of the three other peptides”. Besides, the “Binding to and signaling through CXCR3” value in assay [3] is “lacks the capacity to bind to, and signal through, CXCR3”. In assay [4], the “Effect of added soluble HA on binding of the peptide to cellular GAGs (MFI ([HS+]–[HS−]))” value (from here on “Effect of added soluble HA”) is “no significant differences”, the “Effect of added soluble HS on binding of the peptide to cellular GAGs (MFI ([HS+]–[HS−]))” value (“Effect of added soluble HS” for short) is “statistically significant reduction of binding” and the “Effect of added soluble heparin on binding of the peptide to cellular GAGs (MFI ([HS+]–[HS−]))” value (“Effect of added soluble heparin” for short) is recorded as “statistically significant reduction of binding”.

For * KKKQQKQSQSKKKQQKTT [KKKQQK-2mer], in assay [2], the “Binding to HS+ CHO cells compared with HS- CHO cells (MFI)” value was “bound significantly better to HS^+ CHO cells” and the “Binding capacity for cellular GAGs” value is on record as “significantly higher (p < 0.05) in comparison with the binding capacity of the KKAK-2mer”. For the same molecule, in assay [4], the “Effect of added soluble HA” value is “no significant differences”, the “Effect of added soluble HS” value is listed as “no significant differences” and the “Effect of added soluble heparin” value is “no significant differences”.

For * KKQKQSQSKKQKQSQSKKQKTT [KKQK-3mer], in assay [2], the “Binding to HS+ CHO cells compared with HS- CHO cells (MFI)” value is “bound significantly better to HS^+ CHO cells” and the “Binding capacity for cellular GAGs” value is “significantly higher (p < 0.05) in comparison with the binding capacity of the KKAK-2mer”. In assay [4], the “Effect of added soluble HA” value is “no significant differences”, the “Effect of added soluble HS” value was “no significant differences” and the “Effect of added soluble heparin” value is “no significant differences”.

As for “AAARRARAAAARAKA [modified serglycin peptide in which Ala residues replaced all non-basic amino acids]”, the “Decrease in heparin-binding affinity compared with native peptide YPARRARYQWVRCKP” value in assay [5] (Ala residues replaced all non-basic amino acids) was 350 fold.

YPARRARYQWVRCKP: the Heparin-binding affinity result in assay [5] (fragment of native mouse serglycin core protein with BBXB motif) is “significant heparin-binding affinity”.
